Measured values: PMC11046985 (Neuro-Oncology Advances, 2024)

What was measured:
[1] = cited from earlier work
[2] = system: U87MG human glioblastoma cells; settings: cited from earlier work
[3] = daily afatinib, recurrent glioblastoma; read-out: Cmax in plasma; cited from earlier work
[4] = Afatinib CSF concentration (lumbar puncture), HPLC-MS/MS; assay type: in vivo; settings: human, oral
Experimental: Pharmacokinetic (PK) data were obtained to guide optimal dose of afatinib. The time of maximum plasma concentration is reported between 2 and 5 hours after dosing.[18],[19]

[5] = system: U87EGFRvIII human glioblastoma cells; settings: cited from earlier work
[6] = design: species or system human; settings: in vivo
Text: The opening of a new cohort followed a standard 3 + 3 dose-escalation design and was guided by assessment of all grade toxicities and trends in adverse events seen in subsequent dosing cycles. […] Safety and clinical data were reviewed through day 28 prior to the opening of each cohort level. DLT was defined as any possible drug-related, clinically relevant, grade 3 or 4 non-hematologic toxicity (except alopecia or unmedicated nausea/vomiting), grade 3 nausea, vomiting, or diarrhea of any duration lasting > 24 hours despite standard prophylaxis and/or treatment, grade 4 diarrhea and vomiting of any duration, grade 3 febrile neutropenia (defined as ANC […] with a single temperature of > 38.3° C or a sustained temperature of ≥ 38.3° C for more than 1 hour), grade 4 febrile neutropenia of any duration, grade 4 neutropenia lasting > 7 days (defined as a neutrophil count of < 500/mm^3), grade 4 thrombocytopenia or thrombocytopenia with clinically significant bleeding, grade 4 anemia of any duration, and any clinically significant toxicity that precluded administration of the next scheduled dose beyond 14 days, or dose reduction for any reason. The maximum tolerated dose (MTD) was defined as the highest dose tested in which fewer than 33% of patients experienced a DLT. Review of study data led to expansion of dose cohort 3 while dose cohort 4 was evaluated. Dose cohort 4 was also expanded in the absence of DLTs. The recommended phase II dose was defined as a dose equal to or below the MTD and accounted for any cumulative or delayed toxicity beyond the DLT observation period.
Safety evaluations of hematology and chemistry were conducted weekly on days 1, 8, and 15 in cycles 1 and 2 and every 2 weeks thereafter. Physical examination, vital signs collection, performance status assessment, neurological exam, and coagulation level occurred at the start of every cycle. An ECG and chest X-ray were performed at baseline prior to starting treatment. Toxicities were assessed using NCI CTCAE version 4.03.

[7] = mouse, 30 mg/kg afatinib, CSF from the dura through the atlanto-occipital membrane; cited from earlier work

CN(C)C/C=C/C(=O)Nc1cc2c(Nc3ccc(F)c(Cl)c3)ncnc2cc1O[C@H]1CCOC1 [Afatinib]
12.5%: Constipation: % of patients with treatment-related AE ([6]; human)
< 2.09 nM: concentration at 3 h ([4]; not detected, lower limit of quantification)
9: Nausea: No. of patients with treatment-related AE ([6]; human) | Rash acneiform: No. of patients with treatment-related AE ([6]; human) | Vomiting: No. of patients with treatment-related AE ([6]; human)
approximately 2 μM: Inhibitory concentration of 25% (IC25) [2]
8.3%: Confusion: % of patients with treatment-related AE ([6]; human) | Fever: % of patients with treatment-related AE ([6]; human)
~24 nM: Cmax [3]
280 mg: Recommended phase II dose ([6]; human, po)
~1000 nM: Inhibitory concentration of 25% (IC25) [5]
5: Mucositis oral: No. of patients with treatment-related AE ([6]; human, po)
2: Confusion: No. of patients with treatment-related AE ([6]; human) | Fever: No. of patients with treatment-related AE ([6]; human)
3: Constipation: No. of patients with treatment-related AE ([6]; human)
1: Acute kidney injury: No. of patients with treatment-related AE ([6]; human) | Amnesia: No. of patients with treatment-related AE ([6]; human) | Bilateral blepharitis: No. of patients with treatment-related AE ([6]; human) | Bilateral intermittent leg cramps: No. of patients with treatment-related AE ([6]; human) | Blurred vision: No. of patients with treatment-related AE ([6]; human) | Candida Intertrigo: No. of patients with treatment-related AE ([6]; human) | DVT: No. of patients with treatment-related AE ([6]; human) | Dysgeusia: No. of patients with treatment-related AE ([6]; human) | Dyspepsia: No. of patients with treatment-related AE ([6]; human) | Dyspnea: No. of patients with treatment-related AE ([6]; human) | GERD: No. of patients with treatment-related AE ([6]; human) | Gait disturbance: No. of patients with treatment-related AE ([6]; human) | Gastroenteritis: No. of patients with treatment-related AE ([6]; human) | Headache: No. of patients with treatment-related AE ([6]; human) | Hypokalemia: No. of patients with treatment-related AE ([6]; human) | Ingrown nail: No. of patients with treatment-related AE ([6]; human) | Insomnia: No. of patients with treatment-related AE ([6]; human) | Memory impairment: No. of patients with treatment-related AE ([6]; human) | Metabolic acidosis: No. of patients with treatment-related AE ([6]; human) | Metabolic encephalopathy: No. of patients with treatment-related AE ([6]; human) | Palmar-Plantar Erythrodysesthesia: No. of patients with treatment-related AE ([6]; human) | Paresthesia (lower extremities): No. of patients with treatment-related AE ([6]; human) | Skin atrophy: No. of patients with treatment-related AE ([6]; human) | Skin ulceration: No. of patients with treatment-related AE ([6]; human) | Thrombocytopenia: No. of patients with treatment-related AE ([6]; human) | Thrush (oral): No. of patients with treatment-related AE ([6]; human, po)
0.05 nM: Afatinib concentration in the CSF ([1]; daily afatinib, case of leptomeningeal carcinomatosis)
4: Edema limbs: No. of patients with treatment-related AE ([6]; human) | Pruritus: No. of patients with treatment-related AE ([6]; human)
one: Time of peak concentration in CSF after dosing [7]
18: Diarrhea: No. of patients with treatment-related AE ([6]; human)
no dose-limiting toxicities: Dose-limiting toxicities [6]
16.7%: Edema limbs: % of patients with treatment-related AE ([6]; human) | Pruritus: % of patients with treatment-related AE ([6]; human)
37.5%: Nausea: % of patients with treatment-related AE ([6]; human) | Rash acneiform: % of patients with treatment-related AE ([6]; human) | Vomiting: % of patients with treatment-related AE ([6]; human)
25%: Anorexia: % of patients with treatment-related AE ([6]; human) | Fatigue: % of patients with treatment-related AE ([6]; human) | Rash: % of patients with treatment-related AE ([6]; human)
75%: Diarrhea: % of patients with treatment-related AE ([6]; human)
6: Anorexia: No. of patients with treatment-related AE ([6]; human) | Fatigue: No. of patients with treatment-related AE ([6]; human) | Rash maculo-papular: No. of patients with treatment-related AE ([6]; human) | Rash: No. of patients with treatment-related AE ([6]; human)
< 1.01 ng/mL: concentration at 3 h ([4]; 8 patients, approximately 3 hours after dosing in the first cycle, below lower limit of quantification)
2.9 nM: Median concentration of afatinib in CSF ([1]; afatinib 40 mg daily, 11 patients, leptomeningeal metastases from NSCLC, steady-state day 8)
20.8%: Rash maculo-papular: % of patients with treatment-related AE ([6]; human) | Mucositis oral: % of patients with treatment-related AE ([6]; human, po)
4.2%: Acute kidney injury: % of patients with treatment-related AE ([6]; human) | Amnesia: % of patients with treatment-related AE ([6]; human) | Bilateral blepharitis: % of patients with treatment-related AE ([6]; human) | Bilateral intermittent leg cramps: % of patients with treatment-related AE ([6]; human) | Blurred vision: % of patients with treatment-related AE ([6]; human) | Candida Intertrigo: % of patients with treatment-related AE ([6]; human) | DVT: % of patients with treatment-related AE ([6]; human) | Dysgeusia: % of patients with treatment-related AE ([6]; human) | Dyspepsia: % of patients with treatment-related AE ([6]; human) | Dyspnea: % of patients with treatment-related AE ([6]; human) | GERD: % of patients with treatment-related AE ([6]; human) | Gait disturbance: % of patients with treatment-related AE ([6]; human) | Gastroenteritis: % of patients with treatment-related AE ([6]; human) | Headache: % of patients with treatment-related AE ([6]; human) | Hypokalemia: % of patients with treatment-related AE ([6]; human) | Ingrown nail: % of patients with treatment-related AE ([6]; human) | Insomnia: % of patients with treatment-related AE ([6]; human) | Memory impairment: % of patients with treatment-related AE ([6]; human) | Metabolic acidosis: % of patients with treatment-related AE ([6]; human) | Metabolic encephalopathy: % of patients with treatment-related AE ([6]; human) | Palmar-Plantar Erythrodysesthesia: % of patients with treatment-related AE ([6]; human) | Paresthesia (lower extremities): % of patients with treatment-related AE ([6]; human) | Skin atrophy: % of patients with treatment-related AE ([6]; human) | Skin ulceration: % of patients with treatment-related AE ([6]; human) | Thrombocytopenia: % of patients with treatment-related AE ([6]; human) | Thrush (oral): % of patients with treatment-related AE ([6]; human, po)
